Here are results for 16 compounds from patent US4977153A, “3-aminopropyloxyphenyl derivatives, pharmaceutical compositions containing them and method for the therapy of diseases” (Louis; William J., priority 1985, dated 1990).

Series [1] concerns resting heart rate in the pithed rat. The series is described as follows: intrinsic sympathomimetic activity: increase in resting heart rate in the pithed rat. Type of series: in vivo. As to conditions: maximum effect of cumulative doses of drug up to 3 mg/kg.
The target of series [2] is T1, beta adrenoceptor (heart) (Rattus norvegicus, UniProt P18090).
T1 construct: from tissue; host or cells: heart in the whole animal (pithed rat, in vivo)
The series can be described thus: inhibition of isoproterenol-induced tachycardia in the pithed rat. Type of series: in vivo. As to conditions: read-out: Pithed Rat Effective Dose (ID50).

Series [3] deals with T2, beta adrenoceptor (guinea pig atrium) (Cavia porcellus, UniProt H0W3H1).
T2 construct: in the spontaneously beating guinea pig atrium; from tissue; host or cells: guinea pig atrium, spontaneously beating
The series can be described thus: beta adrenoceptor blocking activity in the spontaneously beating guinea pig atrium (inhibition of positive chronotropic isoproterenol effect). Type of series: cell-based.

The target of series [4] is T3, beta adrenoceptor (guinea pig trachea) (Cavia porcellus, UniProt Q8K4Z4).
T3 construct: tracheal preparations of the guinea pig; from tissue; host or cells: guinea pig tracheal muscle
The series can be described thus: inhibition of isoproterenol-induced relaxation in guinea pig tracheal preparations (cardioselectivity). Conditions: guinea pig trachea, in words. Type of series: cell-based.

The conditions of series [5]: in words; cited from earlier work.
For series [6], the system named is resting heart rate in the pithed rat. Conditions: in words; cited from earlier work.
Series [7] has as its system beta adrenoceptor (guinea pig trachea). The series can be described thus: inhibition of isoproterenol-induced relaxation in guinea pig tracheal preparations (cardioselectivity). Type of series: cell-based. Conditions: selectivity index, guinea pig trachea vs atrium.
The mark [8] stands for this setting: inhibition of isoproterenol-induced tachycardia, pithed rat.
The mark [9] stands for this setting: dose which doubles the concentration of isoproterenol needed to elicit a 50% increase in heart rate, spontaneously beating guinea pig atrium, read-out: Guinea Pig Atrium, Effective Molar Dose (ID50).

Read-outs that look alike come from different tables or passages of the source.

T1 sequence (P18090 whole entry): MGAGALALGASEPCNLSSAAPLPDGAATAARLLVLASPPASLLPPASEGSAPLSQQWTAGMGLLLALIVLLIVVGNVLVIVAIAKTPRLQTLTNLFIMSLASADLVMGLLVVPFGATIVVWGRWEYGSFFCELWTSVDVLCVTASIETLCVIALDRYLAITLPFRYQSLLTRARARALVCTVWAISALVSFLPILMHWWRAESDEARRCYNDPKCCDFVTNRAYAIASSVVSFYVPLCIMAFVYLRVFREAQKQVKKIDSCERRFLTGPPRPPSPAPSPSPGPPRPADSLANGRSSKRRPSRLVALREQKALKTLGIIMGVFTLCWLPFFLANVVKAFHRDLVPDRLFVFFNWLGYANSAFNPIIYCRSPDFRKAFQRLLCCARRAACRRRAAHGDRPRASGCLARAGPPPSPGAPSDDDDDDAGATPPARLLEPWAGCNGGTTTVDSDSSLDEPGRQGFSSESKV
T2 sequence (H0W3H1 1-470): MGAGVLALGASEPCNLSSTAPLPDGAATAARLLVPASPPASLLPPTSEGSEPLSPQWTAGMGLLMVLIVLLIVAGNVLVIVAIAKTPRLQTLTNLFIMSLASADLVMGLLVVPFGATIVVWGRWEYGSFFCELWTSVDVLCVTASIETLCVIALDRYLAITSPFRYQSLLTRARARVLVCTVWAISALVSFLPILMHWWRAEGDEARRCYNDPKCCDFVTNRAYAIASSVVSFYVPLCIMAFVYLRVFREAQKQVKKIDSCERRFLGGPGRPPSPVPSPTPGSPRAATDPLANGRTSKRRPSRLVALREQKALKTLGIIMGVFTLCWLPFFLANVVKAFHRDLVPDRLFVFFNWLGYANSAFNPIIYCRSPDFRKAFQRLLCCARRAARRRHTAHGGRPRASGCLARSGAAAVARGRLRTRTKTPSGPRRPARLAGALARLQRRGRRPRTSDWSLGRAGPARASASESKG
T3 sequence (Q8K4Z4 whole entry): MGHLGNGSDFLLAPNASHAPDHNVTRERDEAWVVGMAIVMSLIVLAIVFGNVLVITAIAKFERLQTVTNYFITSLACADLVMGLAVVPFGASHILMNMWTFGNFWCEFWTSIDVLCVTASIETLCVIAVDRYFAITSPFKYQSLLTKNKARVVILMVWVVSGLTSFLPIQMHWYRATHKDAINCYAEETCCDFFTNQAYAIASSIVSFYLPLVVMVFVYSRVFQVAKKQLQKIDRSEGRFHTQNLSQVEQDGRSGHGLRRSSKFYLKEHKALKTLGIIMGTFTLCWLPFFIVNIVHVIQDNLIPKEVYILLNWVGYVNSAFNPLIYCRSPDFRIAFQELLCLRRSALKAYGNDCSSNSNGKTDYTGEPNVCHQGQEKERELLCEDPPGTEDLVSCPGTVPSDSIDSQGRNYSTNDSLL

With `N#Cc1cc(OCCOCc2ccc(F)cc2)ccc1OCC(O)CNCCNC(=O)Nc1ccc2[nH]ccc2c1` (stereo not drawn) [Example 19], in series [1], the “Maximum Change in Resting Heart Rate in the Pithed Rat” value (“Maximum Change in Resting Heart Rate” below) was “+51”. In addition, the ED50 in series [2] (setting [8]) stood at 0.1 mg/kg. The Kb in series [3] (setting [9]) was determined as 100 nM.
For `CC(C)NCC(O)COc1ccc(CC(N)=O)cc1` (stereo not drawn) [Atenolol, reference compound], the “Maximum Change in Resting Heart Rate” value in series [1] was determined as 0. For the same compound, the ED50 in series [2] (rat) was 0.03 mg/kg. In addition, the “blocking actions of the isoproterenol response in the trachea” value in series [4] was “significant blocking actions of the isoproterenol response in the trachea”. In series [3], this compound yielded a Kb of 200 nM.
For the compound `CCCCOCCOc1ccc(OCC(O)CNCCNC(=O)Nc2ccc3[nH]ccc3c2)c(C#N)c1` (stereo not drawn) [Example 13], the “Maximum Change in Resting Heart Rate” value in series [1] is “+105”.
As to `CCCOCCOc1ccc(OCC(O)CNCCNC(=O)Cc2ccsc2)c(C#N)c1` (stereo not drawn) [Example 11], in series [1], the “Maximum Change in Resting Heart Rate” value is “+66”. Also, the Kb in series [3] (setting [9]) worked out at 12 nM.
On to `CCCOCCOc1ccc(OCC(O)CN[C@H](C)CNC(=O)c2ccco2)c(F)c1` (stereo partly drawn) [Example 33], for which the Kb in series [3] (setting [9]) was 8 nM.
Consider `CC(C)NCC(O)COc1cccc2ccccc12` (stereo not drawn) [Propranolol], for which, in series [5], the “plasma cholesterol effect, known drug” value was “elevated plasma cholesterol” and the “rebound hypersensitivity after cessation, known drug” value is listed as “rebound hypersensitivity occurring after cessation”. Further, the “Maximum Change in Resting Heart Rate” value in series [1] came to 0. The “intrinsic sympathomimetic activity (ISA), known drug” value in series [6] is listed as “no ISA”.
For the compound `COCCOc1ccc(OCC(O)CNCCNC(=O)Nc2ccc3[nH]ccc3c2)c(C#N)c1` (stereo not drawn) [Example 6], the Kb in series [3] (setting [9]) came out at 13 nM.
`O=C(NCCNCC(O)COc1ccc(OCCOCC2CC2)cc1)c1ccco1` (stereo not drawn) [Example 23]: the “Maximum Change in Resting Heart Rate” value in series [1] is recorded as “+42”. Besides, the ED50 in series [2] (setting [8]) turned out to be 0.03 mg/kg.
On to `CCCOCCOc1ccc(OCC(O)CN[C@H](C)CNC(=O)c2ccco2)cc1` (stereo partly drawn) [Example 29], for which, in series [2] (setting [8]), the ED50 is 0.05 mg/kg. The Kb in series [3] (setting [9]) is 30 nM.
As for `CCCOCCOc1ccc(OCC(O)CNCCNC(=O)c2ccoc2)cc1` (stereo not drawn) [Example 28], in series [2] (setting [8]), the ED50 was 0.003 mg/kg.
Take `CC(C)NCC(O)COc1ccc(CCOCC2CC2)cc1` (stereo not drawn) [Betaxolol, reference compound]: the “Maximum Change in Resting Heart Rate” value in series [1] is recorded as 0.
In the case of `CC(C)NCC(O)COc1cccc2[nH]ccc12` (stereo not drawn) [Pindolol, reference compound], the “Maximum Change in Resting Heart Rate” value in series [1] is reported as “+89”.
As for `CCCOCCOc1ccc(OCC(O)CNCCNC(=O)Cc2ccc3[nH]ccc3c2)c(C#N)c1` (stereo not drawn) [Example 9], in series [3] (setting [9]), the Kb turned out to be 25 nM.
Same read-out and setting: the figure for `CCCOCCOc1ccc(OCC(O)CNCCNC(=O)c2ccc3[nH]ccc3c2)c(C#N)c1` (stereo not drawn) [Example 20] is 50 nM; for `N#Cc1cc(OCCOCCc2ccccc2)ccc1OCC(O)CNCCNC(=O)Nc1ccc2[nH]ccc2c1` (stereo not drawn) [Example 14] it is 10 nM.
Regarding `CCCOCCOc1ccc(OCC(O)CNCCNC(=O)Nc2ccc3[nH]ccc3c2)c(C#N)c1` (stereo not drawn) [Example 1, N-[2-[3-[2-cyano-4-(2-propoxyethoxy)phenoxy]-2-hydroxypropylamino]-ethyl]-N'-(1H-indol-5-yl)-urea], the “Maximum Change in Resting Heart Rate” value in series [1] was “+101”. Moreover, the ED50 in series [2] (setting [8]) was determined as 0.002 mg/kg. In addition, in series [7], the “selectivity (cardiac atrial vs tracheal)” value came to 17000. For the same compound, in series [3] (setting [9]), the Kb came out at 3 nM.
